Source: PMC5706069 (2017)

Assays:
[1] = test system: acute thermal nociception; assay: Hot-plate assay in mice after sc administration; type: in vivo; conditions: Mus musculus, 0.5 h, read-out: antinociceptive activity hot-plate assay ED50 (95% CI)
[2] = target: T1, human MOR (Homo sapiens, UniProt P35372); assay: Competition binding assay, [3H]DAMGO, CHO-hMOR cell membranes; conditions: for Ki: read-out: opioid receptor binding, Ki, affinity MOR, CHO-hMOR membranes, [3H]DAMGO, mean ± SEM, at least three experiments
[3] = target: human DOR (Homo sapiens, UniProt P41143); assay: Competition binding assay, [3H]diprenorphine, CHO-hDOR cell membranes; conditions: for selectivity DOR/MOR: ratio of Ki values; for Ki: read-out: opioid receptor binding, Ki, affinity DOR, CHO-hDOR membranes, [3H]diprenorphine, mean ± SEM, at least three experiments
[4] = target: human KOR (Homo sapiens, UniProt P41145); assay: Competition binding assay, [3H]HS665, CHO-hKOR cell membranes; conditions: for selectivity KOR/MOR: ratio of Ki values; for Ki: read-out: opioid receptor binding, Ki, affinity KOR, CHO-hKOR membranes, [3H]HS665, mean ± SEM, at least three experiments
[5] = target: T1, human MOR; assay: [35S]GTPγS binding assay using CHO-hMOR cell membranes; type: biochemical; conditions: for Emax: read-out: functional activity [35S]GTPγS MOR % stim; for EC50: read-out: functional activity [35S]GTPγS MOR EC50, mean ± SEM
[6] = test system: MOR; conditions: 14-methoxy group introduced into 1; ref 6a, 6b; cited from earlier work
[7] = test system: antinociception; conditions: cited from earlier work
[8] = test system: gastrointestinal motility; conditions: ref 6b; cited from earlier work

SMILES	ED50 [1]	Ki [2]	decrease in affinity to the DOR, 1a vs 1 ([3]; human DOR, Ki ratio)	selectivity DOR/MOR [3]	Ki [3]	selectivity KOR/MOR [4]	Ki [4]	Emax [5]	EC50 ([5]; CHO-hMOR membranes)	increase in MOR affinity vs oxymorphone (1) [6]	increase in antinociceptive potency vs oxymorphone (1) ([7]; ref 6a, 6b)	increased antinociceptive potency compared to 2 ([7]; ref 6b)	inhibition of gastrointestinal motility [8]	less constipating than 2 [8]	less constipating than morphine [8]	increase in MOR affinity, 3a vs 3 ([2]; human MOR, Ki ratio)	higher MOR/DOR selectivity ratio than 3 ([3]; 3a vs 3)	higher MOR/KOR selectivity ratio than 3 ([4]; 3a vs 3)	increase in the EC50 of 3a compared to 3 ([5]; [35S]GTPγS, human MOR)	% stim of the reference full agonist DAMGO in [35S]GTPγS binding ([5]; CHO-hMOR membranes, DAMGO's own stimulation, the reference for efficacies)
CN1CC[C@]23c4c5ccc(O)c4O[C@H]2C(=O)CC[C@@]3(O)[C@H]1C5 [Compound 1, oxymorphone, reference compound]	0.382 mg/kg	–	–	–	–	–	–	–	–	–	–	–	–	–	–	–	–	–	–	–
CN1CC[C@]23c4c5ccc(O)c4O[C@H]2CCC[C@@]3(O)[C@H]1C5 [Compound 1a, 3,14-Dihydroxy-4,5α-epoxy-17-methylmorphinan]	0.383 mg/kg	1.65 ± 0.5 nM	~3 fold	122	201 ± 80 nM	13	21.6 ± 3.9 nM	104 ± 7%	8.99 ± 2.19 nM	–	–	–	–	–	–	–	–	–	–	–
CO[C@@]12CCC(=O)[C@@H]3Oc4c(O)ccc5c4[C@@]31CCN(C)[C@@H]2C5 [Compound 2, 14-O-methyloxymorphone]	0.0142 mg/kg	0.32 ± 0.08 nM	–	28	8.8 ± 0.35 nM	32	10.1 ± 3.1 nM	96.4 ± 5%	1.45 ± 0.32 nM	~9 fold	40 fold	–	–	–	–	–	–	–	–	–
CO[C@@]12CCC[C@@H]3Oc4c(O)ccc5c4[C@@]31CCN(C)[C@@H]2C5 [Compound 2a, 4,5α-Epoxy-3-hydroxy-14β-methoxy-17-methylmorphinan]	0.0173 mg/kg	0.24 ± 0.08 nM	–	36	8.64 ± 2.25 nM	17	3.99 ± 0.63 nM	105 ± 6%	1.37 ± 0.26 nM	–	–	–	–	–	–	–	–	–	–	–
CN1CC[C@]23c4c5ccc(O)c4O[C@H]2C(=O)CC[C@@]3(OCc2ccccc2)[C@H]1C5 [Compound 3, 14-O-benzyloxymorphone]	0.00238 mg/kg	0.45 ± 0.1 nM	–	2.3	1.05 ± 0.42 nM	2.8	1.27 ± 0.24 nM	101 ± 5%	0.32 ± 0.16 nM	–	–	5 fold	negligible	7 fold	2.5 fold	–	–	–	–	–
CN1CC[C@]23c4c5ccc(O)c4O[C@H]2CCC[C@@]3(OCc2ccccc2)[C@H]1C5 [Compound 3a, 14β-Benzyloxy-4,5α-epoxy-3-hydroxy-17-methylmorphinan]	0.00241 mg/kg	0.048 ± 0.011 nM	–	–	0.89 ± 0.29 nM	18	0.85 ± 0.05 nM	103 ± 8%	0.13 ± 0.03 nM	–	–	–	–	–	–	up to 9 fold	about 9 fold	~6 fold	~2.5 fold	–
CO[C@@]12CCC(=O)[C@]3(C)Oc4c(O)ccc5c4[C@@]31CCN(C)[C@@H]2C5 [Compound 4, 14-methoxymetopon]	0.0271 mg/kg	–	–	79	19.8 ± 1.3 nM	60	15.1 ± 0.9 nM	99.2 ± 2.8%	3.28 ± 0.81 nM	–	–	–	–	–	–	–	–	–	–	–
CO[C@@]12CCC[C@]3(C)Oc4c(O)ccc5c4[C@@]31CCN(C)[C@@H]2C5 [Compound 4a, 5β,17-Dimethyl-4,5α-epoxy-3-hydroxy-14β-methoxymorphinan]	0.0251 mg/kg	0.34 ± 0.08 nM	–	–	12.9 ± 1.6 nM	–	7.92 ± 4.47 nM	–	2.95 ± 0.54 nM	–	–	–	–	–	–	–	–	–	–	–
C[C@@H](NC(=O)[C@@H](N)Cc1ccc(O)cc1)C(=O)NCC(=O)N(C)[C@@H](Cc1ccccc1)C(=O)NCCO [DAMGO, [D-Ala^2,Me-Phe^4,Gly-ol^5]enkephalin, reference compound]	–	–	–	–	–	–	–	–	–	–	–	–	–	–	–	–	–	–	–	221 ± 13%
